Source: ChEMBL document CHEMBL3991601, “The target landscape of clinical kinase drugs” (Science, 2017)
Active and inactive are the calls of the source. Cut-off read from the data, not from the text of the source, for most assays here: actives have a measured Kd and inactives only a lower limit.

Assays:
[1] = target: Protein-tyrosine kinase 2-beta (Homo sapiens, UniProt Q14289)
[2] = target: Mitogen-activated protein kinase kinase kinase 1 (Homo sapiens, UniProt Q13233)
[3] = target: Focal adhesion kinase 1 (Homo sapiens, UniProt Q05397)
Chain of Focal adhesion kinase 1 (Q05397 whole entry): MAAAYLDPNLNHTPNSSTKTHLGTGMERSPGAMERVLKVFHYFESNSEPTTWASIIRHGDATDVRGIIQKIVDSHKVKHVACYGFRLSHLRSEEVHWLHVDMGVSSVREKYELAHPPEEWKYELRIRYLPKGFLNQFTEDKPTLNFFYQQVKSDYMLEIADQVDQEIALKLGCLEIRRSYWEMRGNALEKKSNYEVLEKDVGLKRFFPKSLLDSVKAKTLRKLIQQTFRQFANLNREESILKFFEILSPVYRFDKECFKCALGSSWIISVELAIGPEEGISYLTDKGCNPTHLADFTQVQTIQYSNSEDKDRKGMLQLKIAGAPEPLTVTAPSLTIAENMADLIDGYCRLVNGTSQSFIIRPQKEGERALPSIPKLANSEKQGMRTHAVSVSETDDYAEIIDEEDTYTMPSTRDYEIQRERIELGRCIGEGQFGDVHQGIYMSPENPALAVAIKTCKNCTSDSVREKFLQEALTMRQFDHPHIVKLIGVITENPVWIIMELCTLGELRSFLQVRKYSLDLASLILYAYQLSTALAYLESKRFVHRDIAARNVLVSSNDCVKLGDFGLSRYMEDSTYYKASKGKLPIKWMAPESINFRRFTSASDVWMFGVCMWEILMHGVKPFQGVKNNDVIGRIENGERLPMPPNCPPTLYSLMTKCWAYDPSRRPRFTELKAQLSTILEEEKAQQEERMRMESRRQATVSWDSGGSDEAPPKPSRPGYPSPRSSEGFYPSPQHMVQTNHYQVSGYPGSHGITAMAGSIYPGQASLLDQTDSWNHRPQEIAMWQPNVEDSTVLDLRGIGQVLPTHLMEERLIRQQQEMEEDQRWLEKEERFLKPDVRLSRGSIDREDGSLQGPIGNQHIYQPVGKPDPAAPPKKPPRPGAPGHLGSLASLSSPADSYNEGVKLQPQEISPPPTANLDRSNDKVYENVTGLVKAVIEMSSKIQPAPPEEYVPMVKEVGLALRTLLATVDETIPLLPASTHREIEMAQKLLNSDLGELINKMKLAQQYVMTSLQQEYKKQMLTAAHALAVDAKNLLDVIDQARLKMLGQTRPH

[4] = target: 5'-AMP-activated protein kinase catalytic subunit alpha-1 (Homo sapiens, UniProt Q13131)
Chain of 5'-AMP-activated protein kinase catalytic subunit alpha-1 (Q13131 whole entry): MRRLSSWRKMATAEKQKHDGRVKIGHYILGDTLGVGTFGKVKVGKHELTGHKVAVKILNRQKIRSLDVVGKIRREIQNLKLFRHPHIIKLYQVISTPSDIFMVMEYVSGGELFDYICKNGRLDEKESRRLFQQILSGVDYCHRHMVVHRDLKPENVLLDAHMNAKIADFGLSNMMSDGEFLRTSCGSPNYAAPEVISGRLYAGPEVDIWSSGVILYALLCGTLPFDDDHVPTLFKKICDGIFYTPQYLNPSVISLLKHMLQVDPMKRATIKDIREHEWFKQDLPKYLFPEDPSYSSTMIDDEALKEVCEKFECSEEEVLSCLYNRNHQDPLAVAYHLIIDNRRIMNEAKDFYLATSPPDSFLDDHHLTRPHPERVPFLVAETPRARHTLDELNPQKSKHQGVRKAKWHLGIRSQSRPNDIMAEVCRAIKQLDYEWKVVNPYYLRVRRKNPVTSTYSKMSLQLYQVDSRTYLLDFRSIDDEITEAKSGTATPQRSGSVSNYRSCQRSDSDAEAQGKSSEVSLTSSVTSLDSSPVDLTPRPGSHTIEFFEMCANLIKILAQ

[5] = target: Cyclin-dependent kinase 5 (Homo sapiens, UniProt Q00535)
Chain of Cyclin-dependent kinase 5 (Q00535 whole entry): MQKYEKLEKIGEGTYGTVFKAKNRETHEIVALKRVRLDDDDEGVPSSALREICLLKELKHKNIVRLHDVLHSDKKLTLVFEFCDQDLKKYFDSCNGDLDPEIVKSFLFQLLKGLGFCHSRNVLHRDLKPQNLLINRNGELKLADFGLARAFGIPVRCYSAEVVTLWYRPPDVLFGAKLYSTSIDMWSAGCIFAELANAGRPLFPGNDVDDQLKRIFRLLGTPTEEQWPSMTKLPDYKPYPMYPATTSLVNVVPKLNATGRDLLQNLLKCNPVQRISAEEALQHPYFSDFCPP

[6] = target: Mitogen-activated protein kinase 1 (Homo sapiens, UniProt P28482)
Chain of Mitogen-activated protein kinase 1 (P28482 whole entry): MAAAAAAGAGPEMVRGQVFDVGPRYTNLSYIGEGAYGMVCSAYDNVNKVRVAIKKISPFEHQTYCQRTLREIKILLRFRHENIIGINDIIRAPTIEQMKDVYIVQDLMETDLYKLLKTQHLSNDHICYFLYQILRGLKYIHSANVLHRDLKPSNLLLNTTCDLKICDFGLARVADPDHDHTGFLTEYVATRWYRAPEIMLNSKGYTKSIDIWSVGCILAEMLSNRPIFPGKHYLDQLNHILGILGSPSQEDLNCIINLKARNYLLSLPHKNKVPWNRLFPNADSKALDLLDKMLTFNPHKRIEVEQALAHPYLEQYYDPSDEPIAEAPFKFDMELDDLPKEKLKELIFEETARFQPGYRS

[7] = target: T1, Tyrosine-protein kinase Tec (Homo sapiens, UniProt P42680)
T1 sequence (P42680 whole entry): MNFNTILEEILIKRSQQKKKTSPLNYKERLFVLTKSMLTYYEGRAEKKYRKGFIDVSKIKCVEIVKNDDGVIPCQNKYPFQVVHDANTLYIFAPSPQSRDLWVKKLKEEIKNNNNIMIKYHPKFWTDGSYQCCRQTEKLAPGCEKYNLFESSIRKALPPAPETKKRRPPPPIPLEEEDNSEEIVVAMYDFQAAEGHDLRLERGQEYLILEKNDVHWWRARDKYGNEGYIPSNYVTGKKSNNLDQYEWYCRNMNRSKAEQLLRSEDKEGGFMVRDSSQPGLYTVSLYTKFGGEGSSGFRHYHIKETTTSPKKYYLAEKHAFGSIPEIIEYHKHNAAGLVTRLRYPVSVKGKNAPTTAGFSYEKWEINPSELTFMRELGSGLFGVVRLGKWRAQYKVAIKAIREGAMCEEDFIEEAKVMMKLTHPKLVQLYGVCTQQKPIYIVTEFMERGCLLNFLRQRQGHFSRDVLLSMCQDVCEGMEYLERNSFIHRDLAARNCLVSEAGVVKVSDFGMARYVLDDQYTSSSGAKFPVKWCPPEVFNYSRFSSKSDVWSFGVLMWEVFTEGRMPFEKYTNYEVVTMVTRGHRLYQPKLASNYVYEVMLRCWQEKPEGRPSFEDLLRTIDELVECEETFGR

[8] = target: T2, Interleukin-1 receptor-associated kinase 3 (Homo sapiens, UniProt Q9Y616)
T2 sequence (Q9Y616 whole entry): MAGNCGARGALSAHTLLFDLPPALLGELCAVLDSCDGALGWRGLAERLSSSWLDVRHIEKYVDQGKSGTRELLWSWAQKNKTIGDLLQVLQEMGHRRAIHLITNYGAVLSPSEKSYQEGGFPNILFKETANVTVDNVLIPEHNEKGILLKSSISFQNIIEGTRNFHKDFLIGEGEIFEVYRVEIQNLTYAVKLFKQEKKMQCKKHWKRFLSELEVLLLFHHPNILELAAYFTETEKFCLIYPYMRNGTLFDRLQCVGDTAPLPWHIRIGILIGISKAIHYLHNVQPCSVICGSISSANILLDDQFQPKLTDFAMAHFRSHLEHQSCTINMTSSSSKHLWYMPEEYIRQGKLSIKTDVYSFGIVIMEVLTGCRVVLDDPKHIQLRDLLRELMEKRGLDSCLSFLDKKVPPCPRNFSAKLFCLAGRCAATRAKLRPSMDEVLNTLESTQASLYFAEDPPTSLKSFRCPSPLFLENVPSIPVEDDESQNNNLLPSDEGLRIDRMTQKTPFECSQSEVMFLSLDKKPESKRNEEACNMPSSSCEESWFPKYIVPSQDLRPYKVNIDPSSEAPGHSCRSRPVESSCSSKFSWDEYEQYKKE

[9] = target: T3, Serine/threonine-protein kinase PLK4 (Homo sapiens, UniProt O00444)
T3 sequence (O00444 whole entry): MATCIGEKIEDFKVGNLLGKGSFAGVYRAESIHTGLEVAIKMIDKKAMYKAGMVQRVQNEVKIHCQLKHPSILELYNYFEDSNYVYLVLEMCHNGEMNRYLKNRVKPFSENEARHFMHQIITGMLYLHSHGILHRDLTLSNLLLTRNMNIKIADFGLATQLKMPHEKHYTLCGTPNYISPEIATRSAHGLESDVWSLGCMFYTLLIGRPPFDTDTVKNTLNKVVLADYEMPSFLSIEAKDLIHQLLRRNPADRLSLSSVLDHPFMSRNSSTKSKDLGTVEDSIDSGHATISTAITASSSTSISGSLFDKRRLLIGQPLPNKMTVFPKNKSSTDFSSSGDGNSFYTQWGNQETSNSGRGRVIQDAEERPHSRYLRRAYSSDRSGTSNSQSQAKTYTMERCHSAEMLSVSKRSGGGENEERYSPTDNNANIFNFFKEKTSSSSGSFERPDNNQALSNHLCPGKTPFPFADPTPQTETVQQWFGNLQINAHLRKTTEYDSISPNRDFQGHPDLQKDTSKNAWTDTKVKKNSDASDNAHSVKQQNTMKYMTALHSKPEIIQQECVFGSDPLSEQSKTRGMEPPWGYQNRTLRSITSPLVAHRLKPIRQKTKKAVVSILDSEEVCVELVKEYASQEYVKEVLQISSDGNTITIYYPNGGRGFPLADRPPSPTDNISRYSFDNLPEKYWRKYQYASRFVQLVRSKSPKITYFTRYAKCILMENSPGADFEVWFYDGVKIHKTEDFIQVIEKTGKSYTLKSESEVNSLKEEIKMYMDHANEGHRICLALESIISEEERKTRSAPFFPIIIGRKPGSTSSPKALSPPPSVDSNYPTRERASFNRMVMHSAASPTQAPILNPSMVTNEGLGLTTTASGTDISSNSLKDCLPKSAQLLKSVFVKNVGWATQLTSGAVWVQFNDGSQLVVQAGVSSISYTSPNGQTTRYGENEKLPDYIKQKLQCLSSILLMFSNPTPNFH
Note: in the data inactive means no Kd found up to 30 µM.

Chain of Protein-tyrosine kinase 2-beta (Q14289 whole entry): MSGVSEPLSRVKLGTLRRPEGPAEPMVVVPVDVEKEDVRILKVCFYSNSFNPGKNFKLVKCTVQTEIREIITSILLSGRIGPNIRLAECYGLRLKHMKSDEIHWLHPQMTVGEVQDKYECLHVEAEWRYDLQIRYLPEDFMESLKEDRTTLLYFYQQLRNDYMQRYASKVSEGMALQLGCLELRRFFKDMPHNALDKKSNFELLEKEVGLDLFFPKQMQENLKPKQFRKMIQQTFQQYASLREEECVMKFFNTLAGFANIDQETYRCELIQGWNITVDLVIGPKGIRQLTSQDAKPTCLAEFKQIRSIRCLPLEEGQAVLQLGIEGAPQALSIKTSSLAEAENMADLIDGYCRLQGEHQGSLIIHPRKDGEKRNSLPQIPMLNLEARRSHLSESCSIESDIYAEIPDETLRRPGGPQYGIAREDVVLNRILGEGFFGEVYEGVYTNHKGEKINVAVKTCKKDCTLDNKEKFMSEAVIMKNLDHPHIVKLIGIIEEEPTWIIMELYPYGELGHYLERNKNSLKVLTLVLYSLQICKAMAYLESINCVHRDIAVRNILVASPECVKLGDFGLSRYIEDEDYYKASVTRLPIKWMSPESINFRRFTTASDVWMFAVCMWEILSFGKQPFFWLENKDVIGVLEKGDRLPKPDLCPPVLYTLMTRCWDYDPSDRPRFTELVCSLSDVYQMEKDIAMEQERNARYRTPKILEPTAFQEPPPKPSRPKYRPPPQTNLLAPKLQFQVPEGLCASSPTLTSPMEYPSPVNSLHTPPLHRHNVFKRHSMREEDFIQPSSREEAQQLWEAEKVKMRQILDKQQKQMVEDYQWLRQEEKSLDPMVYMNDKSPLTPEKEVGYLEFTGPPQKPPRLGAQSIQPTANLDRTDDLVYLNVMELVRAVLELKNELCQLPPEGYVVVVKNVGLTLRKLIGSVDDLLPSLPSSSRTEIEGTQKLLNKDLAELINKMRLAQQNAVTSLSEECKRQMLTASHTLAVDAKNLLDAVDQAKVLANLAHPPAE
Chain of Mitogen-activated protein kinase kinase kinase 1 (Q13233 whole entry): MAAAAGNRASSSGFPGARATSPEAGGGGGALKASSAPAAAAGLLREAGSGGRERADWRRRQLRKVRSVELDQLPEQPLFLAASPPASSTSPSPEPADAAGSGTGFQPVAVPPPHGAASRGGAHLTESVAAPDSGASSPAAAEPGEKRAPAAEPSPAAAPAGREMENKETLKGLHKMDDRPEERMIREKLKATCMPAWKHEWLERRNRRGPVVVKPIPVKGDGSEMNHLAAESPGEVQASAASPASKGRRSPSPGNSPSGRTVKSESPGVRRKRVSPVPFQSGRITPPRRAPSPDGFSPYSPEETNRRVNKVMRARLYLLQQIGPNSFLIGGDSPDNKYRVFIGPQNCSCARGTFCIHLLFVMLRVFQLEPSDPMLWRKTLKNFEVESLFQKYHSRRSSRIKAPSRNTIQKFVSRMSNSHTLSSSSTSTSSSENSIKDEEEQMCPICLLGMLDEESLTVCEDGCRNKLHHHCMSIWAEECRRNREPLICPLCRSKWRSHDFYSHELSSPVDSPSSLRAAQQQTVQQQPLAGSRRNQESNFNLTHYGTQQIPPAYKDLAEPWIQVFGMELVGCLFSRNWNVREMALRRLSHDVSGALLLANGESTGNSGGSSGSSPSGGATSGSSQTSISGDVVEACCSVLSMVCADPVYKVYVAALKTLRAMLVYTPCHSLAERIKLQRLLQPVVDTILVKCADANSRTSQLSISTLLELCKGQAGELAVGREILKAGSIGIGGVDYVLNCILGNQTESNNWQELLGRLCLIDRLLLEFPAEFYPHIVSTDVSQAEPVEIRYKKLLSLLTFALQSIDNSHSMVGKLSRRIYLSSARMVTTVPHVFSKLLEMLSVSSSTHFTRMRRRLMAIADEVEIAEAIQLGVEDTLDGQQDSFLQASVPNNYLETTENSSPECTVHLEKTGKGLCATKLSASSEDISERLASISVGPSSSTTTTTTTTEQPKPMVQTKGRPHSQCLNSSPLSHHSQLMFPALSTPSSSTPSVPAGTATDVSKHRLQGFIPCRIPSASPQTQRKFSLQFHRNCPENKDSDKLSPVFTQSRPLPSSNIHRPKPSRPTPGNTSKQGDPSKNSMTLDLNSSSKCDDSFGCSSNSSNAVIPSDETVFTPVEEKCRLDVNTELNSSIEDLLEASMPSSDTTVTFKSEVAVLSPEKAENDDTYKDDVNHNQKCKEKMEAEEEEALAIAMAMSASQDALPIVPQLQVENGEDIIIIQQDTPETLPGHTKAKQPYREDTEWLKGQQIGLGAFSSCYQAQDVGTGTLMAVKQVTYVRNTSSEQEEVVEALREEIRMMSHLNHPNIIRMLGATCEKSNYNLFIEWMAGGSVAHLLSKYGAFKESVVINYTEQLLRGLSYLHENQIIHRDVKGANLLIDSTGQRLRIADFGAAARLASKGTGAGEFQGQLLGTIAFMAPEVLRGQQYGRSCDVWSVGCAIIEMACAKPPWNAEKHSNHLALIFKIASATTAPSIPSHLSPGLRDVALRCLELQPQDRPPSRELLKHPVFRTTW

SMILES	Kd [1]	Kd [2]	Kd [3]	Kd [4]	Kd [5]	Kd [6]	Kd [7]	Kd [8]	Kd [9]
Cn1ncc(Cl)c1-c1cc(C(=O)N[C@H](CN)Cc2cccc(F)c2)sc1Cl [AFURESERTIB]	> 30 µM (inactive)	> 30 µM (inactive)	> 30 µM (inactive)	> 30 µM (inactive)	> 30 µM (inactive)	> 30 µM (inactive)	> 30 µM (inactive)	> 30 µM (inactive)	> 30 µM (inactive)
COC(=O)N[C@@H](C)CNc1nccc(-c2cn(C(C)C)nc2-c2cc(Cl)cc(NS(C)(=O)=O)c2F)n1 [ENCORAFENIB]	> 30 µM (inactive)	> 30 µM (inactive)	> 30 µM (inactive)	> 30 µM (inactive)	> 30 µM (inactive)	> 30 µM (inactive)	> 30 µM (inactive)	> 30 µM (inactive)	> 30 µM (inactive)
Cc1cc(-c2cc(O)ccc2Cl)cc2nnc(Nc3ccc(OCCN4CCCC4)cc3)nc12	> 30 µM (inactive)	> 30 µM (inactive)	> 30 µM (inactive)	> 30 µM (inactive)	> 30 µM (inactive)	> 30 µM (inactive)	> 30 µM (inactive)	> 30 µM (inactive)	> 30 µM (inactive)
CCCS(=O)(=O)Nc1ccc(F)c(C(=O)c2c[nH]c3ncc(-c4ccc(Cl)cc4)cc23)c1F [VEMURAFENIB]	> 30 µM (inactive)	> 30 µM (inactive)	> 30 µM (inactive)	> 30 µM (inactive)	> 30 µM (inactive)	> 30 µM (inactive)	> 30 µM (inactive)	> 30 µM (inactive)	> 30 µM (inactive)
CC[C@H](Nc1ncnc2[nH]cnc12)c1nc2cccc(F)c2c(=O)n1-c1ccccc1 [IDELALISIB]	> 30 µM (inactive)	> 30 µM (inactive)	> 30 µM (inactive)	> 30 µM (inactive)	> 30 µM (inactive)	> 30 µM (inactive)	> 30 µM (inactive)	> 30 µM (inactive)	> 30 µM (inactive)
CNS(=O)(=O)Nc1nccc(Cc2c(C)c3ccc(Oc4ncccn4)cc3oc2=O)c1F [AVUTOMETINIB]	> 30 µM (inactive)	> 30 µM (inactive)	> 30 µM (inactive)	> 30 µM (inactive)	> 30 µM (inactive)	> 30 µM (inactive)	> 30 µM (inactive)	> 30 µM (inactive)	> 30 µM (inactive)
CC(=O)Nc1cccc(-n2c(=O)n(C3CC3)c(=O)c3c(Nc4ccc(I)cc4F)n(C)c(=O)c(C)c32)c1 [TRAMETINIB]	> 30 µM (inactive)	> 30 µM (inactive)	> 30 µM (inactive)	> 30 µM (inactive)	> 30 µM (inactive)	> 30 µM (inactive)	> 30 µM (inactive)	> 30 µM (inactive)	> 30 µM (inactive)
CO[C@H]1C[C@@H]2CC[C@@H](C)[C@@](O)(O2)C(=O)C(=O)N2CCCC[C@H]2C(=O)O[C@H]([C@H](C)C[C@@H]2CC[C@@H](OCCO)[C@H](OC)C2)CC(=O)[C@H](C)/C=C(\C)[C@@H](O)[C@@H](OC)C(=O)[C@H](C)C[C@H](C)/C=C/C=C/C=C/1C [EVEROLIMUS]	> 30 µM (inactive)	> 30 µM (inactive)	> 30 µM (inactive)	> 30 µM (inactive)	> 30 µM (inactive)	> 30 µM (inactive)	> 30 µM (inactive)	> 30 µM (inactive)	> 30 µM (inactive)
CCc1cnn2c(NCc3ccc[n+]([O-])c3)cc(N3CCCC[C@H]3CCO)nc12 [DINACICLIB]	> 30 µM (inactive)	> 30 µM (inactive)				> 30 µM (inactive)	> 30 µM (inactive)	> 30 µM (inactive)	> 30 µM (inactive)
CC(C)Nc1cc(-c2c[nH]c(C(=O)N[C@H](CO)c3cccc(Cl)c3)c2)c(Cl)cn1 [ULIXERTINIB]	> 30 µM (inactive)	> 30 µM (inactive)	> 30 µM (inactive)	> 30 µM (inactive)	> 30 µM (inactive)		> 30 µM (inactive)	> 30 µM (inactive)	> 30 µM (inactive)
O=C(Nc1cccc(Cl)c1)Nc1ncc(CCNc2ncnc3ccsc23)s1 [SNS-314]	> 30 µM (inactive)						> 30 µM (inactive)	> 30 µM (inactive)	
COc1cc2nccc(Oc3ccc(NC(=O)NC4CC4)c(Cl)c3)c2cc1C(N)=O [LENVATINIB]	> 30 µM (inactive)	> 30 µM (inactive)	> 30 µM (inactive)	> 30 µM (inactive)	> 30 µM (inactive)	> 30 µM (inactive)	> 30 µM (inactive)	> 30 µM (inactive)	
C[C@@H](c1ccc2nccn2c1)n1nnc2ncc(-c3cnn(C)c3)nc21 [SAVOLITINIB]	> 30 µM (inactive)	> 30 µM (inactive)	> 30 µM (inactive)	> 30 µM (inactive)	> 30 µM (inactive)	> 30 µM (inactive)	> 30 µM (inactive)	> 30 µM (inactive)	

Results, then the compound that gave them:

Kd [1]	Kd [2]	Kd [3]	Kd [4]	Kd [5]	Kd [6]	Kd [7]	Kd [8]	Kd [9]	SMILES
> 30 µM (inactive)	> 30 µM (inactive)	> 30 µM (inactive)	> 30 µM (inactive)	> 30 µM (inactive)	> 30 µM (inactive)	> 30 µM (inactive)	> 30 µM (inactive)	> 30 µM (inactive)	CCN1CCN(Cc2ccc(-c3cc4c(N[C@H](C)c5ccccc5)ncnc4[nH]3)cc2)CC1 [AEE-788]
0.343 µM (active)	> 30 µM (inactive)	> 30 µM (inactive)	> 30 µM (inactive)	> 30 µM (inactive)	> 30 µM (inactive)	0.707 µM (active)	0.024 µM (active)	0.183 µM (active)	O=C(O)[C@]1(Cc2cccc(Nc3nccs3)n2)CC[C@@H](Oc2cccc(Cl)c2F)CC1 [MK-5108]
> 30 µM (inactive)	> 30 µM (inactive)				> 30 µM (inactive)	> 30 µM (inactive)	> 30 µM (inactive)	> 30 µM (inactive)	OCCn1cc(-c2cnc3nnn(Cc4ccc5ncccc5c4)c3n2)cn1 [PF-04217903]
	8.16 µM (active)	13 µM (active)					0.057 µM (active)		Cc1nc(N)sc1-c1ccnc(Nc2ccc(N3CCOCC3)cc2)n1 [CYC-116]
> 30 µM (inactive)	> 30 µM (inactive)		> 30 µM (inactive)			> 30 µM (inactive)	> 30 µM (inactive)		Cc1cc(Nc2cc(N3CCN(C)CC3)nc(/C=C/c3ccccc3)n2)n[nH]1 [ENMD-2076]
